Target: human PDE2A1 (Homo sapiens (Human), UniProt O00408)
Assay: PDE selectivity IMAP FP assay, human PDE2A1
Assay type: biochemical
Conditions: Human PDE2; Lab B; read-out: Human PDE2 Ki (nM) Lab B
Description: Selectivity for PDE2, as compared to other PDE families, was assessed using the IMAP® technology. Human PDE10A2 enzyme was prepared from cytosolic fractions of transiently transfected HEK cells.
A Labcyte POD 810 (Labcyte, Sunnyvale, Calif.) was used to dispense 200 nL from each well of the titration plate to make eleven copies of the assay plate for each titration, one copy for each PDE enzyme. A solution of each enzyme (dilution from aliquots, sufficient to produce 20% substrate conversion) and a separate solution of FAM-labeled cAMP or FAM-labeled cGMP from Molecular Devices (Sunnyvale, Calif., product # R7506 or cGMP#R7508), at a final concentration of 50 nM were made in the assay buffer (10 mM Tris HCl, pH 7.2, 10 mM MgCl2, 0.05% NaN3 0.01% Tween-20, and 1 mM DTT). Note that the substrate for PDE2 is 50 nM FAM cAMP containing 1000 nM of cGMP. The enzyme and the substrate were then added to the assay plates in two consecutive additions of 10 μL and then shaken to mix. The reaction was allowed to proceed at room temperature for 60 minutes. A binding solution was then made from the kit components, comprised of 80% Solution A, 20% Solution B and binding reagent at a volume of 1/600 the total binding solution. The enzymatic reaction was stopped by addition of 60 μL of the binding solution to each well of the assay plate. […] The plates were incubated at room temperature for one hour, then the parallel and perpendicular fluorescence was measured using a Tecan Genios Pro plate reader (Tecan, Switzerland). […] The intrinsic PDE2 inhibitory activity of a compound which may be used in accordance with the present invention may be determined by these assays. […]
The PDE2 Ki is a measure of the ability of the test compound to inhibit the action of the PDE2 enzyme.

Chain of human PDE2A1 (O00408 other isoform, or with tags, fused parts or gaps): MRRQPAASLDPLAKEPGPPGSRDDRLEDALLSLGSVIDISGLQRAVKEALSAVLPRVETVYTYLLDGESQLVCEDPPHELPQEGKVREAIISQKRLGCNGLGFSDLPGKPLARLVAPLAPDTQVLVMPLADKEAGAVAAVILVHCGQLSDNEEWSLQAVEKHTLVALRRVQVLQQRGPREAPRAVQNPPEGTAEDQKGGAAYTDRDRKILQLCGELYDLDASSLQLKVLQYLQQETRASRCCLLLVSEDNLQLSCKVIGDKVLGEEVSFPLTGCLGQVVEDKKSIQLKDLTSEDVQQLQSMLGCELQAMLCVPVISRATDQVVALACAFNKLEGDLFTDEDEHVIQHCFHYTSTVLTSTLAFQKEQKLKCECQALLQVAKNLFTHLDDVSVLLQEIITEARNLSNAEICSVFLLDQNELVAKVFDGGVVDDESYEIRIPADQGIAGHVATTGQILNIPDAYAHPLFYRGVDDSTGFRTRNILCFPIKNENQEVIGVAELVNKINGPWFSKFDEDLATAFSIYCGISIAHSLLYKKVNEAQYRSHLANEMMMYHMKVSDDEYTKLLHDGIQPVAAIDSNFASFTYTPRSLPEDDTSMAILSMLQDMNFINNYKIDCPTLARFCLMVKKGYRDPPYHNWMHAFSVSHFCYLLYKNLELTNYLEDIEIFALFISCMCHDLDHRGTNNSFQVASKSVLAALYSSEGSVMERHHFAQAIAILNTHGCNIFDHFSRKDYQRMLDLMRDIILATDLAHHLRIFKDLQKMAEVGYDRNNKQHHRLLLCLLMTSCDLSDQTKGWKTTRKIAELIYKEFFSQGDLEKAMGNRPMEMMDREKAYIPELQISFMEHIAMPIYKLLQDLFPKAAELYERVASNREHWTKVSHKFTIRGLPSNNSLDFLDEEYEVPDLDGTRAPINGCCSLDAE

Compound | Ki [nM]
CCC(c1ccc(C(C)(F)F)cc1)n1nc(CF)c2c(=O)[nH]c(N(C)C)nc21 (single isomer, unassigned) [Example 204, (R)- or (S)-1-(1-(4-(1,1-Difluoroethyl)phenyl)propyl)-6-(dimethylamino)-3-(fluoromethyl)-1H-pyrazolo[3,4-d]pyrimidin-4(5H)-one] | 1.4
CC(c1ccc(C(C)(F)F)cc1F)n1nc(CF)c2c(=O)[nH]c(N(C)C)nc21 (single isomer, unassigned) [Example 208, (R)- or (S)-1-(1-(4-(1,1-Difluoroethyl)-2-fluorophenyl)ethyl)-6-(dimethylamino)-3-(fluoromethyl)-1H-pyrazolo[3,4-d]pyrimidin-4(5H)-one] | 20
CC(c1ccc(C(C)(F)F)c(F)c1)n1nc(CF)c2c(=O)[nH]c(N(C)C)nc21 (single isomer, unassigned) [Example 210, (R)- or (S)-1-(1-(4-(1,1-Difluoroethyl)-3-fluorophenyl)ethyl)-6-(dimethylamino)-3-(fluoromethyl)-1H-pyrazolo[3,4-d]pyrimidin-4(5H)-one] | 3.3
CC(c1ccc(C(C)(F)F)c(F)c1)n1nc(CF)c2c(=O)[nH]c(N(C)C)nc21 (single isomer, unassigned) [Example 211, (S)- or (R)-1-(1-(4-(1,1-Difluoroethyl)-3-fluorophenyl)ethyl)-6-(dimethylamino)-3-(fluoromethyl)-1H-pyrazolo[3,4-d]pyrimidin-4(5H)-one] | 0.048
CCC(c1ccc(C(C)(F)F)cc1F)n1nc(CF)c2c(=O)[nH]c(N(C)C)nc21 (single isomer, unassigned) [Example 215, (S)- or (R)-1-(1-(4-(1,1-Difluoroethyl)-2-fluorophenyl)propyl)-6-(dimethylamino)-3-(fluoromethyl)-1H-pyrazolo[3,4-d]pyrimidin-4(5H)-one] | 0.98
CCC(c1ccc(C(F)(F)F)c(F)c1)n1nc(CF)c2c(=O)[nH]c(N(C)C)nc21 (single isomer, unassigned) [Example 223, (S)- or (R)-6-(Dimethylamino)-1-(1-(3-fluoro-4-(trifluoromethyl)phenyl)propyl)-3-(fluoromethyl)-1H-pyrazolo[3,4-d]pyrimidin-4(5H)-one] | 1.8
CC(C)(C)C(c1ccc(C(F)(F)F)c(F)c1)n1nc(CC(F)(F)F)c2c(=O)[nH]c(O)nc21 (single isomer, unassigned) [Example 246, (R)- or (S)-1-(1-(3-Fluoro-4-(trifluoromethyl)phenyl)-2,2-dimethylpropyl)-6-hydroxy-3-(2,2,2-trifluoroethyl)-1H-pyrazolo[3,4-d]pyrimidin-4(5H)-one] | 408
CC(C)(C)C(c1ccc(C(F)(F)F)c(F)c1)n1nc(CC(F)(F)F)c2c(=O)[nH]c(O)nc21 (single isomer, unassigned) [Example 247, (S)- or (R)-1-(1-(3-Fluoro-4-(trifluoromethyl)phenyl)-2,2-dimethylpropyl)-6-hydroxy-3-(2,2,2-trifluoroethyl)-1H-pyrazolo[3,4-d]pyrimidin-4(5H)-one] | > 2960
CC1(C(c2ccc(C(F)(F)F)c(F)c2)n2nc(CC(F)(F)F)c3c(=O)[nH]c(O)nc32)CC1 (single isomer, unassigned) [Example 248, (R)- or (S)-1-((3-Fluoro-4-(trifluoromethyl)phenyl)(1-methylcyclopropyl)methyl)-6-hydroxy-3-(2,2,2-trifluoroethyl)-1H-pyrazolo[3,4-d]pyrimidin-4(5H)-one] | 47
CC1(C(c2ccc(C(F)(F)F)c(F)c2)n2nc(CC(F)(F)F)c3c(=O)[nH]c(O)nc32)CC1 (single isomer, unassigned) [Example 249, (S)- or (R)-1-((3-Fluoro-4-(trifluoromethyl)phenyl)(1-methylcyclopropyl)methyl)-6-hydroxy-3-(2,2,2-trifluoroethyl)-1H-pyrazolo[3,4-d]pyrimidin-4(5H)-one] | 841
CC(c1ccc(OC(F)(F)F)cc1F)n1nc(C(F)(F)F)c2c(=O)[nH]c(O)nc21 (single isomer, unassigned) [Example 307, (R)- or (S)-1-{1-[2-Fluoro-4-(trifluoro-methoxy)phenyl]ethyl}-6-hydroxy-3-(trifluoromethyl)-1,5-dihydro-4H-pyrazolo-[3,4-d]pyrimidin-4-one] | 10
CC(c1ccc(OC(F)(F)F)cc1F)n1nc(C(F)(F)F)c2c(=O)[nH]c(O)nc21 (single isomer, unassigned) [Example 308, (S)- or (R)-1-{1-[2-Fluoro-4-(trifluoro-methoxy)phenyl]ethyl}-6-hydroxy-3-(trifluoromethyl)-1,5-dihydro-4H-pyrazolo[3,4-d]pyrimidin-4-one] | 213
CC(c1ccc(OC(F)(F)F)c(F)c1)n1nc(C(F)(F)F)c2c(=O)[nH]c(O)nc21 (single isomer, unassigned) [Example 309, (R)- or (S)-1-{1-[3-Fluoro-4-(trifluoromethoxy)phenyl]ethyl}-6-hydroxy-3-(trifluoromethyl)-1,5-dihydro-4H-pyrazolo[3,4-d]pyrimidin-4-one] | 2.7
CC(c1ccc(OC(F)(F)F)c(F)c1)n1nc(C(F)(F)F)c2c(=O)[nH]c(O)nc21 (single isomer, unassigned) [Example 310, (S)- or (R)-1-{1-[3-Fluoro-4-(trifluoromethoxy)phenyl]ethyl}-6-hydroxy-3-(trifluoromethyl)-1,5-dihydro-4H-pyrazolo[3,4-d]pyrimidin-4-one] | 36

The remaining lines, values ahead:

Ki [nM] | Compound
911 | O=c1[nH]c(O)nc2c1c(C(F)F)nn2C(CC(F)(F)F)c1ccc(C(F)(F)F)cc1 (single isomer, unassigned) [Example 271]
43 | O=c1[nH]c(O)nc2c1c(C(F)F)nn2C(CC(F)(F)F)c1ccc(C(F)(F)F)cc1 (single isomer, unassigned) [Example 272]
416 | CC(c1ccc(C2CC2)cc1)n1nc(C(F)F)c2c(=O)[nH]c(O)nc21 (single isomer, unassigned) [Example 275, (R)- or (S)-1-(1-(4-Cyclopropylphenyl)ethyl)-3-(difluoromethyl)-6-hydroxy-1H-pyrazolo[3,4-d]pyrimidin-4(5H)-one]
3.6 | CC(c1ccc(C2CC2)cc1)n1nc(C(F)F)c2c(=O)[nH]c(O)nc21 (single isomer, unassigned) [Example 276, (S)- or (R)-1-(1-(4-Cyclopropylphenyl)ethyl)-3-(difluoromethyl)-6-hydroxy-1H-pyrazolo[3,4-d]pyrimidin-4(5H)-one]
2.5 | CC(c1ccc(C(F)(F)F)cc1)n1nc(CC(F)F)c2c(=O)[nH]c(O)nc21 (single isomer, unassigned) [Example 291]
137 | CC(c1ccc(C(F)(F)F)cc1)n1nc(CC(F)F)c2c(=O)[nH]c(O)nc21 (single isomer, unassigned) [Example 292]
1.9 | CC(c1ccc(C(F)(F)F)cc1F)n1nc(C(F)(F)F)c2c(=O)[nH]c(O)nc21 (single isomer, unassigned) [Example 305]
330 | CC(c1ccc(C(F)(F)F)cc1F)n1nc(C(F)(F)F)c2c(=O)[nH]c(O)nc21 (single isomer, unassigned) [Example 306]
4.9 | CC(c1ccc(S(F)(F)(F)(F)F)cc1)n1nc(C(F)(F)F)c2c(=O)[nH]c(O)nc21 (single isomer, unassigned) [Example 311, (R)- or (S)-6-Hydroxy-1-{1-[4-(pentafluoro-lambda~6-sulfanyl)phenyl]ethyl}-3-(trifluoromethyl)-1,5-dihydro-4H-pyrazolo[3,4-d]pyrimidin-4-one]
265 | CC(c1ccc(S(F)(F)(F)(F)F)cc1)n1nc(C(F)(F)F)c2c(=O)[nH]c(O)nc21 (single isomer, unassigned) [Example 312, (S)- or (R)-6-Hydroxy-1-{1-[4-(pentafluoro-lambda~6-sulfanyl)phenyl]ethyl}-3-(trifluoromethyl)-1,5-dihydro-4H-pyrazolo[3,4-d]pyrimidin-4-one]
2.2 | CC(c1ccc(C(F)(F)F)c(F)c1)n1nc(C(F)(F)F)c2c(=O)[nH]c(O)nc21 (single isomer, unassigned) [Example 313, (R)- or (S)-1-{1-[3-Fluoro-4-(trifluoromethyl)phenyl]ethyl}-6-hydroxy-3-(trifluoromethyl)-1,5-dihydro-4H-pyrazolo[3,4-d]pyrimidin-4-one]
106 | CC(c1ccc(C(F)(F)F)c(F)c1)n1nc(C(F)(F)F)c2c(=O)[nH]c(O)nc21 (single isomer, unassigned) [Example 314, (S)- or (R)-1-{1-[3-Fluoro-4-(trifluoromethyl)phenyl]ethyl}-6-hydroxy-3-(trifluoromethyl)-1,5-dihydro-4H-pyrazolo[3,4-d]pyrimidin-4-one]
629 | CC(c1ccc(OC(F)F)cc1)n1nc(C(F)(F)F)c2c(=O)[nH]c(O)nc21 (single isomer, unassigned) [Example 315, (R)- or (S)-1-{1-[4-(Difluoromethoxy)phenyl]ethyl}-6-hydroxy-3-(trifluoromethyl)-1,5-dihydro-4H-pyrazolo[3,4-d]pyrimidin-4-one]

— patent US10174037B2, “Dihydropyrazolopyrimidinone compounds as PDE2 inhibitors” (Merck Sharp & Dohme Corp., priority 2015, dated 2019)
